Patent publication US20230204599A1, “TRIAGING METHOD USING CELL FREE NUCLEOSOME LEVELS” (Belgian Volition SRL (BE/BE), priority 2020, published 2023)

Tests used:
sepsis induced in mice = conditions: cited from earlier work
[1] = tested on: white cells in fresh healthy whole blood; test: NETs formation induced in fresh healthy whole blood, H3.1-nucleosome ELISA and Bioanalyzer electrophoresis of plasma; format: cell-based, human; conditions: 2 healthy volunteers
From the text: We collected whole blood samples from two healthy volunteers, in whom low levels of circulating NET material would be expected, in EDTA plasma blood collection tubes and in heparin plasma blood collection tubes. The two EDTA plasma blood collection tubes were centrifuged immediately to separate the cellular and plasma fractions to minimise contamination by large chromatin (including NET material) and the plasma was transferred to cryotubes and frozen. The two heparin plasma blood collection tubes were incubated at room temperature for 1 hour with gentle rotation of the tubes. The tubes were then centrifuged and the plasma was transferred to cryotubes and frozen.
The samples were assayed for nucleosomes containing histone isoform H3.1 (H3.1-nucleosomes) using an ELISA procedure in duplicate. In brief, 20 μl of sample were added to a microtiter well containing magnetic particles precoated with an anti-histone H3.1 antibody. The sample was incubated and the magnetic particles were isolated and washed. An anti-nucleosome antibody directed to bind to a conformational nucleosome epitope conjugated to horse radish peroxidase was added to the magnetic particles. The particles were incubated and then isolated and washed. The bound anti-nucleosome antibody was measured using a coloured substrate reaction. […]

[2] = cited from earlier work
[3] = single 25 mg/m^2 bolus intravenous dose

COc1cccc2c1C(=O)c1c(O)c3c(c(O)c1C2=O)C[C@@](O)(C(=O)CO)C[C@@H]3O[C@H]1C[C@H](N)[C@@H](O)[C@H](C)O1 [epirubicin]
survival (sepsis induced in mice; lethal sepsis by cecal ligation and puncture, death in 100% of mice within 72 hours without treatment): 75%
inflammation measured by circulating inflammatory biomarkers (sepsis induced in mice; septic mice): reduction in inflammation

heparin
NET material level in plasma (H3.1-nucleosome ELISA) ([1]; blood collection tubes incubated 1 hour at room temperature): high
level of NET material in plasma (DNA fragment size, Bioanalyzer) ([1]; retention time approximately 110 seconds): high

DNase
half-life ([2]; in vivo, iv): 3 to 4 h

COc1cccc2c1C(=O)c1c(O)c3c(c(O)c1C2=O)C[C@@](O)(C(=O)CO)C[C@@H]3O[C@H]1C[C@H](N)[C@H](O)[C@H](C)O1 [doxorubicin]
serum concentration [2, 3]: 10 µg/mL
time serum level remains above 3 μg/ml [2, 3]: around 4 days
